# Assay results reported in patent US7671085B2, “Non-steroidal farnesoid X receptor modulators and methods for the use thereof” (The Salk Institute for Biological Studies, priority 2002, dated 2010).
# “Also recorded” adds a separate entry of the source.
# Biological target: T1, FXR (Homo sapiens, UniProt Q96RI1)
# T1 construct: using a full length FXR on a natural response element; expressed in transfected cells
# T1 sequence (Q96RI1 1-486): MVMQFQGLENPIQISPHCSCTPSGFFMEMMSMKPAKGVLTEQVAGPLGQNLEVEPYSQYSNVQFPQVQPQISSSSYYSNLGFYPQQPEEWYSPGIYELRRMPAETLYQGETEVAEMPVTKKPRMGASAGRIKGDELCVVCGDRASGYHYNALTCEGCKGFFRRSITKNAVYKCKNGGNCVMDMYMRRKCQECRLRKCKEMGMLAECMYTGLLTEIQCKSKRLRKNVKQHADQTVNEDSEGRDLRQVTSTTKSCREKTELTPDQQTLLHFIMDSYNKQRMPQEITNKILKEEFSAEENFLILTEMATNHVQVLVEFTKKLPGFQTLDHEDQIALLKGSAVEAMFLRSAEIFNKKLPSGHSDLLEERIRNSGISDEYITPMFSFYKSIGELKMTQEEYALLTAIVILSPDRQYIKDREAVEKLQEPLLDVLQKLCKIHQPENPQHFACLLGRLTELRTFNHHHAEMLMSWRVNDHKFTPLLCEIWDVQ
# Assay: cell-based FXR transcription assay, FXR responsive promoter linked to luciferase reporter
# Settings: cell-based FXR reporter assay; determined with Prism 3.0
# From the text: In addition to ensuring that only cell permeable compounds were selected for further optimization, this approach allows for the detection of FXR activation in a natural system (i.e., correct folding of the protein and in the presence of a complete compliment of co-activators and co-repressors).
# The feasibility of creating high throughput screens (HTS) for ORs was explored using FXR as a candidate orphan receptor (OR) with a known activator, chenodeoxycholic acid (CDCA) as a ligand. The screen is based on the co-transfection of a full-length receptor with the reporter vector containing a natural hormone response element under a minimal eukaryotic promoter. […] Using this 384-well format, the high throughput screening (HTS) approach to FXR as a candidate OR was employed. […] A central question in the feasibility studies is whether this library is suitable for screening for nuclear receptor ligands. Samples of this library were first reformatted into a 384-well format and then subjected to the FXR cell-based assays described above and assessed for FXR-mediated transcriptional activity. Cells were exposed to approximately 10 μM of sample for 18 hrs prior to washing and luciferase analysis.
# EC50 values were determined with Prism 3.0 software via the activity of the subject compound in the previously described cell based assay.
row,EC50 [nM],Compound
1,3.58,COC(=O)/C=C/c1cccc(N(Cc2ccc3c(c2OC)OC(C)(C)C=C3)C(=O)C2CCCCC2)c1 [Compound 65]
2,256,CCOC(=O)C=Cc1cccc(N(Cc2ccc(C=CC(=O)OC(C)(C)C)cc2)C(=O)C2CCCCC2)c1 [Compound 133]

# Same assay, conditions: cell-based FXR reporter assay; footnote a not given
row,Compound,RE^a
1,COC(=O)C=Cc1cccc(N(Cc2ccc(C=CC(=O)O)cc2)C(=O)C2CCCCC2)c1 [Compound 104],0.08
2,COC(=O)/C=C/c1cccc(N(Cc2ccc(/C=C/C(=O)OC(C)(C)C)cc2)C(=O)C2CCCCC2)c1 [Compound 105],2.12
3,COC(=O)/C=C/c1cccc(N(Cc2ccccc2)C(=O)C2CCCCC2)c1 [Compound 110],0.09
4,COC(=O)/C=C/c1cccc(N(Cc2ccc(Br)cc2)C(=O)C2CCCCC2)c1 [Compound 112],0.28
5,COC(=O)C=Cc1cccc(N(Cc2cccc(Br)c2)C(=O)C2CCCCC2)c1 [Compound 113],0.11
6,COC(=O)/C=C/c1cccc(N(Cc2cccc(OC)c2)C(=O)C2CCCCC2)c1 [Compound 115],0.11
7,COC(=O)/C=C/c1cccc(N(Cc2cccc(C(F)(F)F)c2)C(=O)C2CCCCC2)c1 [Compound 117],0.12
8,COC(=O)/C=C/c1cccc(N(Cc2cc(OC)cc(OC)c2)C(=O)C2CCCCC2)c1 [Compound 118],0.11
9,COC(=O)C=Cc1cccc(N(Cc2ccc(C=Cc3ccc(OC)cc3)cc2)C(=O)C2CCCCC2)c1 [Compound 122],1.67
10,COC(=O)C=Cc1cccc(N(Cc2ccc(C=Cc3ccc(C(C)(C)C)cc3)cc2)C(=O)C2CCCCC2)c1 [Compound 123],0.29
11,COC(=O)/C=C/c1cccc(N(Cc2ccc(-c3ccccc3)cc2)C(=O)C2CCCCC2)c1 [Compound 124],0.71
12,COC(=O)/C=C/c1cccc(N(Cc2ccc(-c3ccc(SC)cc3)cc2)C(=O)C2CCCCC2)c1 [Compound 125],1.74
13,COC(=O)/C=C/c1cccc(N(Cc2ccc(-c3cc(Cl)cc(Cl)c3)cc2)C(=O)C2CCCCC2)c1 [Compound 126],0.95
14,COC(=O)/C=C/c1cccc(N(Cc2ccc(-c3cccc(C(C)=O)c3)cc2)C(=O)C2CCCCC2)c1 [Compound 127],1.30
15,COC(=O)C=Cc1cccc(N(Cc2ccc(-c3ccc(C)s3)cc2)C(=O)C2CCCCC2)c1 [Compound 128],1.78
16,COC(=O)C=Cc1cccc(N(Cc2ccc(-c3ccc(C(C)=O)s3)cc2)C(=O)C2CCCCC2)c1 [Compound 129],1.48
17,COC(=O)/C=C/c1cccc(NC(=O)C2CCCCC2)c1 [Compound 132],0.09
18,CCOC(=O)C=Cc1cccc(N(Cc2ccc(C=CC(=O)OC(C)(C)C)cc2)C(=O)C2CCCCC2)c1 [Compound 133],2.07
19,CC(C)(C)OC(=O)C=Cc1ccc(CN(C(=O)C2CCCCC2)c2cccc(C=CC(=O)OC(C)(C)C)c2)cc1 [Compound 134],1.06
20,CC(C)(C)OC(=O)C=Cc1ccc(CN(C(=O)C2CCCCC2)c2cccc(C=CC(N)=O)c2)cc1 [Compound 135],0.50
21,COCC=Cc1cccc(N(Cc2ccc(C=CC(=O)OC(C)(C)C)cc2)C(=O)C2CCCCC2)c1 [Compound 136],1.68
22,CCOCC=Cc1cccc(N(Cc2ccc(C=CC(=O)OC(C)(C)C)cc2)C(=O)C2CCCCC2)c1 [Compound 137],1.74

# Continued, values first:
row,RE^a,Compound
1,0.40,COC(=O)/C=C/c1cccc(N(Cc2ccc3c(c2OC)OC(C)(C)C=C3)C(=O)C2CCCCC2)c1 [Compound 65]
2,0.83,COC(=O)C=Cc1cccc(N(Cc2ccc3c(c2OC)OC(C)(C)C=C3)C(=O)c2ccccc2)c1 [Compound 68]
3,0.64,COC(=O)/C=C/c1cccc(N(Cc2ccc3c(c2OC)OC(C)(C)C2C3C2(Cl)Cl)C(=O)c2ccccc2)c1 (stereo not shown) [Compound 102]
4,0.11,COC(=O)C=Cc1cccc(N(Cc2ccccc2Br)C(=O)C2CCCCC2)c1 [Compound 114]

# Same assay, conditions: cell-based reporter assay, SAR discussion
row,Compound,"FXR activation, in words"
1,COC(=O)/C=C/c1cccc(N(Cc2ccc3c(c2OC)OC(C)(C)C=C3)C(=O)C2CC2)c1 [Compound 29],substantially better activator of FXR than compound 26; also recorded: capable of activating FXR to a significant extent
2,COC/C=C/c1cccc(N(Cc2ccc3c(c2OC)OC(C)(C)C=C3)C(=O)C2CC2)c1 [Compound 33],capable of activating FXR to a significant extent
3,COC(=O)C=Cc1cccc(N(Cc2ccc3c(c2OC)OC(C)(C)C(O)C3Sc2ccccc2)C(=O)c2ccccc2)c1 (stereo not shown) [Compound 98],did not improve the activity
4,COC(=O)/C=C/c1cccc(N(Cc2cccc(/C=C/C(=O)OC(C)(C)C)c2)C(=O)C2CCCCC2)c1 [Compound 107],only micromolar potency
5,COC(=O)/C=C/c1cccc(N(Cc2ccccc2/C=C/C(=O)OC(C)(C)C)C(=O)C2CCCCC2)c1 [Compound 109],only micromolar potency
6,COC(=O)/C=C/c1cccc(N(Cc2ccc(-c3ccc(SC)cc3)cc2)C(=O)C2CCCCC2)c1 [Compound 125],excellent activity
7,CCOC(=O)C=Cc1cccc(N(Cc2ccc(C=CC(=O)OC(C)(C)C)cc2)C(=O)C2CCCCC2)c1 [Compound 133],marked decline in potency
8,CC(C)(C)OC(=O)C=Cc1ccc(CN(C(=O)C2CCCCC2)c2cccc(C=CC(=O)OC(C)(C)C)c2)cc1 [Compound 134],marked decline in potency
9,CC(C)(C)OC(=O)C=Cc1ccc(CN(C(=O)C2CCCCC2)c2cccc(C=CC(N)=O)c2)cc1 [Compound 135],marked decline in potency

# Results, then the molecule that gave them:
row,"FXR activation, in words",Compound
1,did not improve the activity,COC(=O)/C=C/c1cccc(N(Cc2ccc3c(c2OC)OC(C)(C)[C@@H](O)[C@H]3O)C(=O)c2ccccc2)c1 (relative stereo) [Compound 93]
2,among the most active at this stage,COc1c(CN(C(=O)C2CC2)c2ccccc2)ccc2c1OC(C)(C)C=C2 [Compound 26]
3,among the most active at this stage,COc1c(CN(C(=O)C2CCCCC2)c2ccccc2)ccc2c1OC(C)(C)C=C2 [Compound 27]
4,inactive,CCOC(=O)/C=C/c1cccc(N(Cc2ccc3c(c2OC)OC(C)(C)C=C3)C(=O)C2CC2)c1 [Compound 30]
5,inactive,COc1c(CN(C(=O)C2CC2)c2cccc(/C=C/C#N)c2)ccc2c1OC(C)(C)C=C2 [Compound 34]
6,inactive,CNC(=O)/C=C/c1cccc(N(Cc2ccc3c(c2OC)OC(C)(C)C=C3)C(=O)C2CC2)c1 [Compound 38]
7,does not activate FXR,COC(=O)/C=C/c1ccc(N(Cc2ccc3c(c2OC)OC(C)(C)C=C3)C(=O)C2CC2)cc1 [Compound 53]
8,inactive,COC(=O)/C=C/c1cccc(N(Cc2ccccc2)Cc2ccc3c(c2OC)OC(C)(C)C=C3)c1 [Compound 78]
9,inactive,COC(=O)/C=C/c1cccc(N(C)Cc2ccc3c(c2OC)OC(C)(C)C=C3)c1 [Compound 79]
10,inactive,COC(=O)/C=C/c1cccc(N(Cc2ccc3c(c2OC)OC(C)(C)C=C3)S(=O)(=O)c2ccc(C)cc2)c1 [Compound 82]
11,inactive,COC(=O)/C=C/c1cccc(N(Cc2ccc3c(c2OC)OC(C)(C)C=C3)C(=S)C2CC2)c1 [Compound 83]
12,inactive,COC(=O)/C=C/c1cccc(N(Cc2ccc3c(c2OC)OC(C)(C)C=C3)C(=S)NCc2ccccc2)c1 [Compound 84]
13,did not improve the activity,COC(=O)/C=C/c1cccc(N(Cc2ccc3c(c2OC)OC(C)(C)C=C3C(=O)O)C(=O)c2ccccc2)c1 [Compound 86]
14,did not improve the activity,COC(=O)C=Cc1cccc(N(Cc2ccc3c(c2OC)OC(C)(C)C(O)C3O)C(=O)c2ccccc2)c1 (stereo not shown) [Compound 94]
15,did not improve the activity,COC(=O)C=Cc1cccc(N(Cc2ccc3c(c2OC)OC(C)(C)C(O)C3N2CCCCC2)C(=O)c2ccccc2)c1 (stereo not shown) [Compound 100]
